What is called clearance is the volume of plasma or blood freed of the substance per unit of time. Usually IC50 stands for the concentration that gives 50% inhibition.

The structures appear in SMILES notation.

Series [1] in a line: IV clearance, 1 mg/kg IV, mouse. In kind it is in vivo. Conditions: for in vivo/in vitro correction factor: microsomal CLh divided by IV CL; for clearance: plasma, 1 mg/kg IV. How it is done: In Table 1, the predicted human IV clearance values were calculated from compound concentration-versus-time data in plasma collected from pre-clinical species (mouse, rat, dog and monkey) following 1 mg/kg intravenous (IV) doses. Concentrations of compound in plasma were measured by LC-MS (liquid chromatography-mass spectrometry). AUCinf values (Area under the plasma concentration-time curve for a dosing interval from time 0 extrapolated to infinity) for individual Cp/t curves (concentration of the drug in plasma at any time t) were determined using linear-trapezoidal integration and first order extrapolation from terminal points of the Cp/t curves, and clearance (CL) was calculated using Dose/AUCinf.

A short description of series [2]: Liver microsomal clearance, human. In kind it is in vitro ADME. To be noted: pH 7.4; Human liver microsomes; 1 mg/mL; 20 minutes. How it is done:
(§1) The predicted hepatic clearance (CLh) value was calculated by scaling the in vitro half-life (t1/2) for stability of the compound in liver microsomes (1 mg/mL; 20 minutes) using the physical and physiological scaling factors used to predict intrinsic clearance (CLint) and hepatic clearance (CLhep) listed in Table 2 and employed in the following equations: […]
(§2) where D is the amount of cytochrome P450-related protein per mass of liver, W is the average mass of liver present per weight of animal, C is the liver microsomal concentration, and Q is the species-dependent hepatic blood flow.
(§3) A 100 mM potassium phosphate assay buffer solution (KPB) was prepared as follows. Both KH2PO4 and K2HPO4 were dissolved separately in reagent grade water resulting in final concentrations 100 mM. A 75:25 mixture v/v of K2HPO4:KH2PO4 was prepared and the pH of the solution was adjusted to 7.4 using diluted HCl or diluted NaOH solutions. Stock solutions of Compound 1, Compound 2 and Compound 3 were prepared at 10 mM (active compound) in DMSO. The stock solution was diluted immediately before use to 2.5 μM using the KPB solution to create the working standard. All test compounds were completely soluble in DMSO by visual inspection at room temperature. The NADPH-regenerating solution (NRS) was prepared on the day of analysis by diluting one volume of 17 mg/mL NADP^+ with one volume of 78 mg/mL glucose-6-phosphate (both prepared in KPB, pH 7.4) and 7.9 volumes of 20 mM MgCl2. The final concentrations of NADP^+ and glucose-6-phosphate were 1.7 mg/mL and 7.8 mg/mL, respectively. […]
(§4) All calculations were performed using BioAssay Enterprise. The mean peak area ratios were calculated by averaging the peak area ratios (n=2) of Compound 1, Compound 2, Compound 3, and the internal standard for each sample. Percent remaining was calculated by determining the ratio of the peak area ratio at each time point to the peak area ratio of the time-zero samples. The rate of loss of test compound (km) was determined by linear regression of −ln(f(t)) versus time. […] The t1/2 was determined dividing ln(2) by km. […]
On the technique in general: Liver microsomes are vesicles of endoplasmic reticulum, rich in cytochrome P450 enzymes.

For series [3], the target named is T1, cloned hERG potassium channels expressed in human embryonic kidney cells (HEK293) (Homo sapiens, UniProt Q12809).
T1 construct: expressed in transfected cells; host or cells: HEK293
Put plainly: FASTPatch hERG Assay (Example F). In kind it is cell-based. To be noted: HEK293, QPatch HT, room temperature. How it is done: This assay was used to measure the effects of Compound 1, Compound 2, and Compound 3 on cloned hERG potassium channels expressed in human embryonic kidney cells (HEK293). The in vitro effects of Compound 1, Compound 2, and Compound 3 on the hERG (human ether-a-go-go-related gene) potassium channel current (a surrogate for IKr, the rapidly activating, delayed rectifier cardiac potassium current) expressed in mammalian cells were evaluated at room temperature using the QPatch HT® (Sophion Bioscience A/S, Denmark), an automatic parallel patch clamp system. The test article was evaluated at 0.3, 1, 3, 10, 30 and 100 μM with each concentration tested in three or more cells (n≥3). The duration of exposure to each test article concentration was 3 minutes. A positive control confirmed the sensitivity of the test system to hERG inhibition.
(The hERG channel carries a current that helps repolarise heart muscle cells.)

Series [4] in a line: Liver microsomal clearance, dog. In kind it is in vitro ADME. To be noted: pH 7.4; Dog liver microsomes; 1 mg/mL; 20 minutes. How it is done: as §1, §2, §3, §4
Series [5] in a line: Liver microsomal clearance, monkey. To be noted: pH 7.4; Monkey liver microsomes; 1 mg/mL; 20 minutes. In kind it is in vitro ADME. How it is done: as §1, §2, §3, §4
For a further series, the target named is T2, p38gamma (Homo sapiens, UniProt P53778).
T2 construct: purchased Millipore, Inc. (KinaseProfiler service)
Put plainly: KinaseProfiler kinase profiling. In kind it is biochemical. Conditions: 10 μM, ATP near Km. How it is done:
(§5) Compound 1 was tested for off-target kinase activity at a concentration of 10 μM by Millipore, Inc. in their KinaseProfiler™ service against all the kinases available in their full kinase panel. Compound 1 was run in duplicate at a concentration of ATP near the Km for each individual kinase according to Millipore's specifications. Data are reported as percent of control (POC) and are the average of the two replicates.

The target of the next series is T3, TAO1 (Homo sapiens, UniProt Q7L7X3).
T3 construct: purchased Millipore, Inc. (KinaseProfiler service)
The series is described as follows: KinaseProfiler kinase profiling. In kind it is biochemical. Conditions: 10 μM, ATP near Km. How it is done:
as §5

In the next series the target is T4, Pim-1 (Homo sapiens, UniProt P11309).
T4 construct: purchased Millipore, Inc. (KinaseProfiler service)
Put plainly: KinaseProfiler kinase profiling. In kind it is biochemical. To be noted: 10 μM, ATP near Km. How it is done:
as §5

The target of the next series is T5, FGFR3 (Homo sapiens, UniProt P22607).
T5 construct: purchased Millipore, Inc. (KinaseProfiler service)
Put plainly: KinaseProfiler kinase profiling. In kind it is biochemical. To be noted: 10 μM, ATP near Km. How it is done: as §5

In a further series the target is T6, PKCtheta (Homo sapiens, UniProt Q04759).
T6 construct: purchased Millipore, Inc. (KinaseProfiler service)
The series is described as follows: KinaseProfiler kinase profiling. In kind it is biochemical. Conditions: 10 μM, ATP near Km. How it is done:
as §5

T1 sequence (Q12809 whole entry): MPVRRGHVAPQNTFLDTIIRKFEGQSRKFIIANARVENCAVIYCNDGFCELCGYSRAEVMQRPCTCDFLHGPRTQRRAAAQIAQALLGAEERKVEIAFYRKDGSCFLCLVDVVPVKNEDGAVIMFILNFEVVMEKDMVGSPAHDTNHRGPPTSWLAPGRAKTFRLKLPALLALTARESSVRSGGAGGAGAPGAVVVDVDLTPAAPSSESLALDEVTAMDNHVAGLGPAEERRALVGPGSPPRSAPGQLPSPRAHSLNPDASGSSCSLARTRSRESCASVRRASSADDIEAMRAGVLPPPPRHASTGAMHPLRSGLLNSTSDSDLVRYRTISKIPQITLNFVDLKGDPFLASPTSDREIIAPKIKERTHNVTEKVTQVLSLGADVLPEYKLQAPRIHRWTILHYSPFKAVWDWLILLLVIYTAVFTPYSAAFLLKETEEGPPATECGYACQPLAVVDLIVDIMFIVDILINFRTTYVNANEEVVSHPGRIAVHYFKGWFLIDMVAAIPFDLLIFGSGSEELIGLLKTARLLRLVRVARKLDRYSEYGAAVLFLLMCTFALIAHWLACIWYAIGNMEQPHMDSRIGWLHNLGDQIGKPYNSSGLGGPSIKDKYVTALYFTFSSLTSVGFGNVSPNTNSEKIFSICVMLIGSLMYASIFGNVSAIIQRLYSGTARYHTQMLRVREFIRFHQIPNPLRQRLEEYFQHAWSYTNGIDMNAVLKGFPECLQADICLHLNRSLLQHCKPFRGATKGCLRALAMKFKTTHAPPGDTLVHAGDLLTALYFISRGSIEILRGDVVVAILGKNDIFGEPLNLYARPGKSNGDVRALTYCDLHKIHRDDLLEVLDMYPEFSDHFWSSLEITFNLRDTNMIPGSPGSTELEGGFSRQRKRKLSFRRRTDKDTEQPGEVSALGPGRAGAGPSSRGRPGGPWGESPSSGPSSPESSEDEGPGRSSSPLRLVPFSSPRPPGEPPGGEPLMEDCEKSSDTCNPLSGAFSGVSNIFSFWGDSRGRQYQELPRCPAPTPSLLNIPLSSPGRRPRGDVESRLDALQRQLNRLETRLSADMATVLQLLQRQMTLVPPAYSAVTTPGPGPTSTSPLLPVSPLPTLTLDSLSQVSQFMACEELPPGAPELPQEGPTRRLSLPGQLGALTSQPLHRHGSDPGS
T2 sequence (P53778 whole entry): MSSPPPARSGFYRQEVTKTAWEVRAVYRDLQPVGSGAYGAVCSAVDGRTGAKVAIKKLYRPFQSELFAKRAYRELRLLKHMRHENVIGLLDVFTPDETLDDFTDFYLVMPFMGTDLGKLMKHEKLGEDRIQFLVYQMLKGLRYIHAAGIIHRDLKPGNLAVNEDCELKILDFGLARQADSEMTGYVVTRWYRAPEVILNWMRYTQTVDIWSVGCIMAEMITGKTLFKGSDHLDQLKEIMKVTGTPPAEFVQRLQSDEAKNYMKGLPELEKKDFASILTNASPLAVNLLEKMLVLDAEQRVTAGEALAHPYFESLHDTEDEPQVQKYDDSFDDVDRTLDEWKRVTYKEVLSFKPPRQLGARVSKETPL
T4 sequence (P11309 whole entry): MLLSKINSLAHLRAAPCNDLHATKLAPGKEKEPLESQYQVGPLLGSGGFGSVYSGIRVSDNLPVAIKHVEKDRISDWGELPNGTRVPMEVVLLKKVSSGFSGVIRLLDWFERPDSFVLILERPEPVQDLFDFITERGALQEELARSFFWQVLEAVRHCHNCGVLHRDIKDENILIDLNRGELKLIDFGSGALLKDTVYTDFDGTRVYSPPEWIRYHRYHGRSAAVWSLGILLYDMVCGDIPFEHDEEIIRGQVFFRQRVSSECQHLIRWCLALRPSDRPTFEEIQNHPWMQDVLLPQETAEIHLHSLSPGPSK
T6 sequence (Q04759 whole entry): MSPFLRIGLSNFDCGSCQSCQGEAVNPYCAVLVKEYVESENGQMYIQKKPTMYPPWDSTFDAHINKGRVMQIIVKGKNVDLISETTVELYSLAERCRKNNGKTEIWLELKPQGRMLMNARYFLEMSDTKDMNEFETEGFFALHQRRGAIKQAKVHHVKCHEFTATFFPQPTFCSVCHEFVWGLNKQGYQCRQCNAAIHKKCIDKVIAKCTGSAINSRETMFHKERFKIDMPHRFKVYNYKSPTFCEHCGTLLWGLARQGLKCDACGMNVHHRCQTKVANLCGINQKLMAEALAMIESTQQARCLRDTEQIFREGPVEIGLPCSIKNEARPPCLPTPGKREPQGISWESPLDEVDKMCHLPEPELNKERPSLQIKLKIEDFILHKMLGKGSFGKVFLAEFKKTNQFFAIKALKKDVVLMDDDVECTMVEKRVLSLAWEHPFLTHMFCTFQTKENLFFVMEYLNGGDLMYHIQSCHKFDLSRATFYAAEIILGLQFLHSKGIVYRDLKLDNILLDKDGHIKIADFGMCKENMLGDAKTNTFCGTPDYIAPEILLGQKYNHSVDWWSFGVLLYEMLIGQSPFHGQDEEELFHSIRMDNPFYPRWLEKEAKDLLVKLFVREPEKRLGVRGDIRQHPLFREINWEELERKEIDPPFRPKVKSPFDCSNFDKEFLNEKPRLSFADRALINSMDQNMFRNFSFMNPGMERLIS
T5 sequence (P22607 23-806): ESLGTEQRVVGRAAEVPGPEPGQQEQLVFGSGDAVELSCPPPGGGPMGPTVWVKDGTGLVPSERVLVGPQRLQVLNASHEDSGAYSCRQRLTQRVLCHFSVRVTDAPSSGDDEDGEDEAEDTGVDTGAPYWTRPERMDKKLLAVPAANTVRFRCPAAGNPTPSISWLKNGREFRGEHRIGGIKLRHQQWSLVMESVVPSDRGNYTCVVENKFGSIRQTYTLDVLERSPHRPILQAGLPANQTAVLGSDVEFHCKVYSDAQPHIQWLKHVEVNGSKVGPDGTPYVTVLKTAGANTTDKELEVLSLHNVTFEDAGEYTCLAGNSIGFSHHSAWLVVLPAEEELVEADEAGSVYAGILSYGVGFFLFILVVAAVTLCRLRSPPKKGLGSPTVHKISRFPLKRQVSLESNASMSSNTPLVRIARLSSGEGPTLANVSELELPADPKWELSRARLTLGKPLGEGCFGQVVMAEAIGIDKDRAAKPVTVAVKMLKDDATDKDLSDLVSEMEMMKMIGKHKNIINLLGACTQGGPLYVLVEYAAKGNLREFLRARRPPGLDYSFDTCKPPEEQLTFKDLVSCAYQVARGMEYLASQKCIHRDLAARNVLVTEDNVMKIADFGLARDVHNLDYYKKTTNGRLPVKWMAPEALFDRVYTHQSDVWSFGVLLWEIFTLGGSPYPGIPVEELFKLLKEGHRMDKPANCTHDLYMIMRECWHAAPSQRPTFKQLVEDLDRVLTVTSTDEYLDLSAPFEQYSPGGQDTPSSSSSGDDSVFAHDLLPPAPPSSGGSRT
T3 sequence (Q7L7X3 whole entry): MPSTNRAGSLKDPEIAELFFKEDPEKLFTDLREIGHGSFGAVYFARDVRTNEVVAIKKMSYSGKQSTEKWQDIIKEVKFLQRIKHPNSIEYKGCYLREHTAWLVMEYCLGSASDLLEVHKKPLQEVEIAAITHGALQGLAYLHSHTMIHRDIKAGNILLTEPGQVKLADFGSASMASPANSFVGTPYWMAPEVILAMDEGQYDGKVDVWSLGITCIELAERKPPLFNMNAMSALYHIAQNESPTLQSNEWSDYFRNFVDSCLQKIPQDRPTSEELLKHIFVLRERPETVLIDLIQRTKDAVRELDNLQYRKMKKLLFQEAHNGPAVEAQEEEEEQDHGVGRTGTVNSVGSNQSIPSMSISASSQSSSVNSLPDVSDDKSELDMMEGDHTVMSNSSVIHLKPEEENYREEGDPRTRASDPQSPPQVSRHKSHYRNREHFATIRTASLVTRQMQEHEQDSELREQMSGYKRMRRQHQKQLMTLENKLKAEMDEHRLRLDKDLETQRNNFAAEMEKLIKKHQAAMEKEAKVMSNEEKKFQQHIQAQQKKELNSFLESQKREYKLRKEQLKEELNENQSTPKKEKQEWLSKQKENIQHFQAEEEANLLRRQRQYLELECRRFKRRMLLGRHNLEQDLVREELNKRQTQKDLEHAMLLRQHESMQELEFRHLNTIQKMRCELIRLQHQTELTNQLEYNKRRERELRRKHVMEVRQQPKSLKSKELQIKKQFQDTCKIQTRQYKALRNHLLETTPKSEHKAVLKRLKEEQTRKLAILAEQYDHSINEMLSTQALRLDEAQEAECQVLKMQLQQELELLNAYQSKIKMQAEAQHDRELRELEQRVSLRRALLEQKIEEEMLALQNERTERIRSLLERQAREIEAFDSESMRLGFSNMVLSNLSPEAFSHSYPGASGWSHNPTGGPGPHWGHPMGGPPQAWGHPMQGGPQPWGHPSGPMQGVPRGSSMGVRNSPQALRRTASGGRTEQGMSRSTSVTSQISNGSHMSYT

As for `COCCN1C[C@@H](NC(=O)Nc2c(C)c(-c3cnc(C)nc3)nn2-c2ccccc2)[C@H](c2ccc(F)c(F)c2)C1` [Compound 2, 1-((3S,4R)-4-(3,4-difluorophenyl)-1-(2-methoxyethyl)pyrrolidin-3-yl)-3-(4-methyl-3-(2-methylpyrimidin-5-yl)-1-phenyl-1H-pyrazol-5-yl)urea], the “in vivo/in vitro correction factor” value in series [1] came to 1.36. For the same compound, the clearance in series [1] stood at 42 mL/min/kg. Moreover, the CLhep predicted at 1 μM in [2] was 14 mL/min/kg; in series [4], 26 mL/min/kg; in [5] it was 38 mL/min/kg. In addition, in series [3], half-maximal inhibition (IC50) was put at 6.9 µM.

As for `COCCN1C[C@@H](NC(=O)Nc2c(C)c(-c3cnn(C)c3)nn2-c2ccccc2)[C@H](c2ccc(F)cc2)C1` [Compound 3, 1-(1′,4-dimethyl-1-phenyl-1H,1′H-[3,4′-bipyrazol]-5-yl)-3-((3S,4R)-4-(4-fluorophenyl)-1-(2-methoxyethyl)pyrrolidin-3-yl)urea], the “in vivo/in vitro correction factor” value in series [1] turned out to be 0.85. This compound also registered a clearance in [1] of 71 mL/min/kg. For the same compound, the results for the CLhep predicted at 1 μM in [2], in series [4] and in series [5] were 10 mL/min/kg, 23 mL/min/kg and 32 mL/min/kg, respectively.

Regarding `COCCN1C[C@@H](NC(=O)Nc2c(C)c(-c3cnc(C)nc3)nn2-c2ccccc2)[C@H](c2cccc(F)c2)C1` [Compound 1, 1-((3S,4R)-4-(3-fluorophenyl)-1-(2-methoxyethyl)pyrrolidin-3-yl)-3-(4-methyl-3-(2-methylpyrimidin-5-yl)-1-phenyl-1H-pyrazol-5-yl)urea], the CLhep predicted at 1 μM is 9.8 mL/min/kg in series [2], 24 mL/min/kg in series [4] and 33 mL/min/kg in [5]. In [3], this compound showed an IC50 of 20 µM. Moreover, the “Avg POC” value stood at 114.5 POC at p38gamma; 96 POC on TAO1; 103.5 POC at Pim-1; 108 POC at FGFR3; 128.5 POC at PKCtheta.
